Source: patent US9029405B2, “5-(biphenyl-4-yl)-3-phenyl-1,2,4-oxadiazolyl derivatives as ligands on the sphingosine 1-phosphate(SIP)receptors” (Merck Serono S.A., priority 2010, dated 2015)
pEC50: −log10 of the molar value. Counter-ions that a name gives are not always drawn. Like-named read-outs stand apart in the source and are kept apart here.

Experiments:
[1] = target: T1, S1P1 (Homo sapiens, UniProt P21453); test: Receptor binding assay, [33P]sphingosine 1-phosphate competition, membranes of CHO cells expressing S1P1
Procedure: (§1) Membranes were prepared from CHO cells expressing S1P1 or S1P3 for use in ligand binding studies. Cells were suspended in 50 mM TRIS, pH 7.4, 2 mM EDTA, 250 mM Sucrose (buffer A) and 1× Complete protease inhibitor cocktail (Roche), and disrupted at 4° C. by N2 decompression using a cell disruption bomb (Parr Instrument). Following centrifugation at 1000 RPM for 10 min at 4° C., the supernatant was diluted (2×) in buffer A and centrifuged again at 19000 RPM for 75 min at 4° C. The pellet was then suspended in 10 mM HEPES, pH 7.4, 1 mM EDTA, 250 mM Sucrose (Buffer B), and 1× Complete EDTA-free protease inhibitor cocktail and homogenized using a potter. Membranes were flash frozen in liquid N2 and stored at −80° C.
(§2) [33P]sphingosine 1-phosphate (3000 Ci/mmol; American Radiolabeled Chemicals, Inc.) was added to test compounds in 20% DMSO by competition. Membranes and WGA SPA beads (GE Healthcare) were added to give a final volume of 100 μl in 96-well plates or 50 μl in 384-well plates with assay concentrations of 30 pM or 15 pM [33P]sphingosine 1-phosphate (respectively for S1P1 or S1P3), 50 mM HEPES, pH 7.5, 5 mM MgCl2, 100 mM NaCl, 0.4% fatty acid-free BSA, 1-5 μg/well of proteins in 96-well plates vs 0.6-1 μg/well of proteins in 384-well plates and 100 μg/well of WGA SPA beads in 96-well plates vs 75 μg/well of WGA SPA beads in 384-well plates. Binding was performed for 60 min at RT on a shaker and bound radioactivity was measured on a PerkinElmer 1450 MicroBeta counter. Triplicate samples were averaged and normalized as percentage of inhibition relative to total binding (only DMSO in well) and non specific binding (1000-fold excess of unlabeled S1P). Binding data were analyzed using the GraphPad Prism program or Genedata software.
(§3) The “potency” or the “activity” of the compounds is determined by the Ki values as evaluated in one of the above described binding assay, 96 or 384 well plates.
Target sequence in this assay (P21453 whole entry, species assumed): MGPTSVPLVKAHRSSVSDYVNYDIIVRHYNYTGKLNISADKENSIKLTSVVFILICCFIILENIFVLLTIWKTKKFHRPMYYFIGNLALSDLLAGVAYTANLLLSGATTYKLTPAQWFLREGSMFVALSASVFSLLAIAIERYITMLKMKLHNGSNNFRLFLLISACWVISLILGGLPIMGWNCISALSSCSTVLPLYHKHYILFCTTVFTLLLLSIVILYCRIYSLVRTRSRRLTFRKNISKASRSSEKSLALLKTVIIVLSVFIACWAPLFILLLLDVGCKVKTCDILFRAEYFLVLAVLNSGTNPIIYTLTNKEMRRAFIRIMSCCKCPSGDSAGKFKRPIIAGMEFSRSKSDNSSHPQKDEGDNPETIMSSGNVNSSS

[2] = target: T1, S1P1; test: S1P1 internalization assay in S1P1-U2OS cells (cell imaging); type: cell-based; design: host or cells: U2OS (human bone osteosarcoma epithelial cells); details: U2OS cells expressing S1P1-EGFP, 384-well format
Procedure: Cellular Functional Assays: Internalization of Sphinqosine-1-phosphate Receptor 1 (S1P1) in a Human Cell Line (U2OS) in a 384-Well Format Using a Cell Imaging Analysis.
The S1P1 internalization assay was performed in 384 well plates (Corning 384 black with clear bottom 3712) using S1P1-U2OS cells from BioImage (C039A), a human epithelial cell line (Human Bone Osteosarcoma Epithelial Cells). These cells expressed the human S1P1 Receptor fused to the green fluorescent protein (EGFP). A standard CMV promoter (cytomegalovirus promoter) controls the expression of S1P1-EGFP and continuous expression was maintained by addition of geneticin to the culture medium.
S1P1 Receptor desensitization induced the internalization of the membrane-localized S1P-EGFP fusion protein to endosomes, which can be monitored by cell imaging analysis.
The cells are plated in low serum medium (Dulbecco's Modified Eagle Medium (DMEM) with Glutamax-1 and high glucose, 1% Penicillin/Streptomycin, 1% Fetal Calf Serum (FCS), 0.5 mg/ml Geneticin) overnight.
The next day, S1P1-U2OS cells are incubated in 20 μl serum free medium (DMEM with Glutamax-1 and high glucose, 0.1% of fatty-acid free Bovin Serum Albumin (BSA), 10 mM, N′-2-Hydroxyethylpiperazine-N′-2 ethanesulphonic acid (HEPES) 1M) for 2 hours at 37° C./5% CO2. The cells are then treated with 4 μl compounds/agonists (6×/3% DMSO) for a total volume of 24 μl, and plates are incubated for 1 hour at 37° C./5% CO2.
S1P1-U2OS cells are fixed with 25 μl Paraformaldehyde 8% and stained with Hoechst 33345 dye (1:1000) for 20 minutes.
They were then washed 3 times with Phosphate Buffered Saline (PBS) and plates are sealed. The internalization of the receptor S1P1-EGFP is measured on Cellomics by calculating the “spot count per object” (“object” corresponds to nuclear and “spot” corresponds to S1P1-EGFP receptor). Internalization data were observed thanks to vHCS View and analyzed using Genedata® software.
Target sequence in this assay (P21453 whole entry): as the sequence (P21453 whole entry, species assumed) above

[3] = target: S1P3 (Homo sapiens, UniProt Q99500); test: Receptor binding assay, [33P]sphingosine 1-phosphate competition, membranes of CHO cells expressing S1P3
Procedure: as §1, §2, §3

[4] = 384 well plate, read-out: S1P1 Binding Ki [M] (384 well plate)
[5] = 384 well plate, read-out: S1P3 Binding Ki [M] (384 well plate)
[6] = 96 well plate, read-out: S1P3 Binding Ki [M] (96 well plate)
[7] = 96 well plate, read-out: S1P1 Binding Ki [M] (96 well plate)

Sequence of S1P3 (Q99500 whole entry, species assumed): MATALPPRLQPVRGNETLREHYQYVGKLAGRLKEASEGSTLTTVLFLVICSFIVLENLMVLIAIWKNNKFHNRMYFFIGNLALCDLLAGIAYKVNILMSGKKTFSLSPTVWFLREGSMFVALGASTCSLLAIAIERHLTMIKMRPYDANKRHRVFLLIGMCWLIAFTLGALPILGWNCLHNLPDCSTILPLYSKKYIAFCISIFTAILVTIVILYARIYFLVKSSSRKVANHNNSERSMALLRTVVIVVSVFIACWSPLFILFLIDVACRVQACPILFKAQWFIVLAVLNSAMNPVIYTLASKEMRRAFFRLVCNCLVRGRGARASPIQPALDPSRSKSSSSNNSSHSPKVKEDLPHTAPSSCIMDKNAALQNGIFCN

SMILES: Cc1ccccc1-c1ccc(-c2nc(-c3cccc(CNC(C(=O)O)C(C)O)c3)no2)cc1C(F)(F)F (centres unmarked) [Example 77]
- Ki [1, 4]: 5.47e-09 M
- pEC50 [2]: 7.40

SMILES: Cc1ccccc1-c1ccc(-c2nc(-c3ccc([C@@H](C)N(C)CC(=O)O)cc3)no2)cc1C(F)(F)F [Example 36, N-methyl-N-[(1R)-1-(4-{5-[2′-methyl-2-(trifluoromethyl)biphenyl-4-yl]-1,2,4-oxadiazol-3-yl}phenyl)ethyl]glycine, hydrochloride salt]
- Ki [1, 4]: 2.55e-09 M
- Ki [3, 5]: 7.93e-07 M
- pEC50 [2]: 7.47

SMILES: Cc1ccccc1-c1ccc(-c2nc(-c3cccc(CNC(C(=O)O)C(C)C)c3)no2)cc1C(F)(F)F (centres unmarked) [Example 79]
- Ki [1, 4]: 1.07e-09 M
- Ki [3, 6]: 3.32e-08 M
- Ki [3, 5]: 2.67e-07 M
- pEC50 [2]: 7.82

SMILES: Cc1ccccc1-c1ccc(-c2nc(-c3ccc([C@H](CO)N[C@H](C)C(=O)O)cc3)no2)cc1C(F)(F)F (single isomer, unassigned) [Example 100, hydrochloride salt]
- Ki [1, 7]: 1.09e-09 M
- Ki [3, 6]: 2.45e-06 M

SMILES: Cc1ccccc1-c1ccc(-c2nc(-c3ccc([C@@H](C)N)cc3)no2)cc1C(F)(F)F [Example M1]
- Ki [1, 7]: 4.05e-10 M
- Ki [3, 6]: 1.45e-06 M

SMILES: Cc1ccccc1-c1ccc(-c2nc(-c3ccc(CN(C)C(C(=O)O)C(C)O)cc3)no2)cc1C(F)(F)F (centres unmarked) [Example 74]
- Ki [1, 4]: 8.53e-09 M
- pEC50 [2]: 6.97

SMILES: Cc1cc(-c2nc(-c3ccc([C@@H](C)N(C)CC(=O)O)cc3)no2)ccc1-c1ccccc1C(F)(F)F [Example 35, N-methyl-N-[(1R)-1-(4-{5-[2-methyl-2′-(trifluoromethyl)biphenyl-4-yl]-1,2,4-oxadiazol-3-yl}phenyl)ethyl]glycine, hydrochloride salt]
- Ki [1, 4]: 6.14e-09 M
- pEC50 [2]: 6.68

SMILES: Cc1ccccc1-c1ccc(-c2nc(-c3cccc(CN(C)C(C)(CO)C(=O)O)c3)no2)cc1C(F)(F)F (centres unmarked) [Example 84]
- Ki [1, 4]: 4.25e-09 M
- pEC50 [2]: 7.07

SMILES: Cc1cc(-c2nc(-c3ccc([C@H](C)N(C)CC(=O)O)cc3)no2)ccc1-c1ccccc1C(F)(F)F [Example 33, N-methyl-N-[(1S)-1-(4-{5-[2-methyl-2′-(trifluoromethyl)biphenyl-4-yl]-1,2,4-oxadiazol-3-yl}phenyl)ethyl]glycine, hydrochloride salt]
- Ki [1, 4]: 5.77e-09 M
- pEC50 [2]: 7.04

SMILES: COCC(c1ccc(-c2noc(-c3ccc(-c4ccccc4C)c(C(F)(F)F)c3)n2)cc1)N(C)CC(=O)O (centres unmarked) [Example 51, 2-((2-methoxy-1-(4-(5-(2′-methyl-2-(trifluoromethyl)biphenyl-4-yl)-1,2,4-oxadiazol-3-yl)phenyl)ethyl)(methyl)amino)acetic acid]
- Ki [1, 4]: 7.52e-09 M
- pEC50 [2]: 7.53

SMILES: Cc1ccccc1-c1ccc(-c2nc(-c3ccc([C@@H](CO)N[C@H](C)C(=O)O)cc3)no2)cc1C(F)(F)F (single isomer, unassigned) [Example 99, hydrochloride salt]
- Ki [1, 7]: 8.85e-10 M
- Ki [3, 6]: 2.3e-06 M

SMILES: Cc1cc(-c2nc(-c3ccc([C@H](C)N[C@@H](C)C(=O)O)cc3)no2)ccc1-c1ccccc1C(F)(F)F (racemic) [Example 24, N-[(1S)-1-(4-{5-[2-methyl-2′-(trifluoromethyl)biphenyl-4-yl]-1,2,4-oxadiazol-3-yl}phenyl)ethyl]-L-alanine, hydrochloride salt and N-[(1R)-1-(4-{5-[2-methyl-2′-(trifluoromethyl)biphenyl-4-yl]-1,2,4-oxadiazol-3-yl}phenyl)ethyl]-D-alanine, hydrochloride salt]
- Ki [1, 4]: 4.29e-09 M
- pEC50 [2]: 7.05

SMILES: Cc1cc(-c2nc(-c3cccc(C(C)N(C)[C@@H](C)C(=O)O)c3)no2)ccc1-c1ccccc1C(F)(F)F (some centres unmarked) [Example 28, N-methyl-N-[1-(3-{5-[2-methyl-2′-(trifluoromethyl)biphenyl-4-yl]-1,2,4-oxadiazol-3-yl}phenyl)ethyl]alanine, hydrochloride salt]
- Ki [1, 4]: 1.38e-08 M
- pEC50 [2]: 5.29

SMILES: CC[C@H](N[C@H](C)c1ccc(-c2noc(-c3ccc(-c4ccccc4C)c(C(F)(F)F)c3)n2)cc1)C(=O)O [Example 10, (2S)-2-{[(1R)-1-(4-{5-[2′-methyl-2-(trifluoromethyl)biphenyl-4-yl]-1,2,4-oxadiazol-3-yl}phenyl)ethyl]amino}butanoic acid, hydrochloride salt]
- Ki [1, 4]: 1.94e-08 M
- pEC50 [2]: 6.73

SMILES: COCc1cc(-c2nc(-c3ccc([C@@H](C)N(C)CC(=O)O)cc3)no2)ccc1-c1ccccc1C [Example 97, N-[(1R)-1-(4-{5-[2-(methoxymethyl)-2′-methylbiphenyl-4-yl]-1,2,4-oxadiazol-3-yl}phenyl)ethyl]-N-methylglycine, hydrochloride salt]
- Ki [1, 7]: 7.8e-10 M
- Ki [3, 6]: 4.8e-07 M

SMILES: Cc1cc(-c2nc(-c3cccc(C(C)N(C)CC(=O)O)c3)no2)ccc1-c1ccccc1C(F)(F)F (centres unmarked) [Example 30, N-methyl-N-[1-(3-{5-[2-methyl-2′-(trifluoromethyl)biphenyl-4-yl]-1,2,4-oxadiazol-3-yl}phenyl)ethyl]glycine, hydrochloride salt]
- Ki [1, 4]: 1.43e-08 M
- pEC50 [2]: 6.39

SMILES: Cc1ccccc1-c1ccc(-c2nc(-c3cccc(CN(C)C(C)(C)C(=O)O)c3)no2)cc1C(F)(F)F [Example 83, 2-Methyl-2-(methyl-{3-[5-(2′-methyl-2-trifluoromethyl-biphenyl-4-yl)-[1,2,4]oxadiazol-3-yl]-benzyl}-amino)-propionic acid]
- Ki [1, 4]: 3.56e-09 M
- pEC50 [2]: 7.12

SMILES: COCc1cc(-c2nc(-c3ccc([C@H](C)N(C)CC(=O)O)cc3)no2)ccc1-c1ccccc1C [Example 98, N-[(1S)-1-(4-{5-[2-(methoxymethyl)-2′-methylbiphenyl-4-yl]-1,2,4-oxadiazol-3-yl}phenyl)ethyl]-N-methylglycine, hydrochloride salt]
- Ki [1, 7]: 6.2e-10 M
- Ki [3, 6]: ≥ 2e-05 M

SMILES: CNCc1cccc(-c2noc(-c3ccc(-c4ccccc4C)c(C(F)(F)F)c3)n2)c1 [Example M2]
- Ki [1, 7]: 5.6e-10 M
- Ki [3, 6]: 2.4e-08 M

SMILES: COCC(NCc1cccc(-c2noc(-c3ccc(-c4ccccc4C)c(C(F)(F)F)c3)n2)c1)C(=O)O (centres unmarked) [Example 76, 3-Methoxy-2-{3-[5-(2′-methyl-2-trifluoromethyl-biphenyl-4-yl)-[1,2,4]oxadiazol-3-yl]-benzylamino}-propionic acid]
- Ki [1, 4]: 1.5e-08 M
- pEC50 [2]: 6.88

SMILES: CCN(Cc1cccc(-c2noc(-c3ccc(-c4ccccc4C)c(C(F)(F)F)c3)n2)c1)C(C)(C)C(=O)O [Example 88, 2-(Ethyl-{3-[5-(2′-methyl-2-trifluoromethyl-biphenyl-4-yl)-[1,2,4]oxadiazol-3-yl]-benzyl}-amino)-2-methyl-propionic acid]
- Ki [1, 4]: 2.85e-09 M
- pEC50 [2]: 7.16

SMILES: CCCC(NCc1ccc(-c2noc(-c3ccc(-c4ccccc4C)c(C(F)(F)F)c3)n2)cc1)C(=O)O (centres unmarked) [Example 62]
- Ki [1, 4]: 3.81e-09 M
- pEC50 [2]: 7.13
